“And” between values parts separate entries of the source, which are not always exact repeats. Equal values may be shown once. Toxic doses and inconclusive results are not listed. Rule as the data show it: active = T/C of 150% or more; inactive = T/C below 125%.
Test system: L1210 leukemia ip in BDF1 mice, survival T/C
Assay: NCI In Vivo Anticancer Drug Screen. Data for tumor model L1210 Leukemia (intraperitoneal) in B6D2F1 (BDF1) mice
Settings: endpoint: mean survival time, higher = longer survival
Outline: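 Tumor was transplanted into mice, which were then dosed with test compound or vehicle alone. Survival was recorded for each group, and the treated figure was expressed relative to the control figure.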

[1] = dose: 12.5 mg/kg/injection, schedule: Q04DX003 (ip), vehicle: saline
[2] = dose: 25.0 mg/kg/injection, schedule: Q04DX003 (ip), vehicle: saline
[3] = dose: 50.0 mg/kg/injection, schedule: Q04DX003 (ip), vehicle: saline
[4] = dose: 100.0 mg/kg/injection, schedule: Q01DX009 (ip), vehicle: saline
[5] = dose: 100.0 mg/kg/injection, schedule: Q04DX003 (ip), vehicle: saline
[6] = dose: 200.0 mg/kg/injection, schedule: Q01DX009 (ip), vehicle: saline
[7] = dose: 200.0 mg/kg/injection, schedule: Q04DX003 (ip), vehicle: saline
[8] = dose: 400.0 mg/kg/injection, schedule: Q01DX009 (ip), vehicle: saline
[9] = dose: 100.0 mg/kg/injection, schedule: Q01DX009 (ip), vehicle: Klucel (hydroxypropylcellulose) (HPC)
[10] = dose: 200.0 mg/kg/injection, schedule: Q01DX009 (ip), vehicle: Klucel (hydroxypropylcellulose) (HPC)
[11] = dose: 100.0 mg/kg/injection, schedule: Q01DX001 (ip), vehicle: saline
[12] = dose: 200.0 mg/kg/injection, schedule: Q01DX001 (ip), vehicle: saline
[13] = dose: 100.0 mg/kg/injection, schedule: Q04DX002 (ip), vehicle: Klucel (hydroxypropylcellulose) (HPC)
[14] = dose: 200.0 mg/kg/injection, schedule: Q04DX002 (ip), vehicle: Klucel (hydroxypropylcellulose) (HPC)
[15] = dose: 400.0 mg/kg/injection, schedule: Q04DX002 (ip), vehicle: Klucel (hydroxypropylcellulose) (HPC)
[16] = dose: 50.0 mg/kg/injection, schedule: Q01DX009 (ip), vehicle: saline
[17] = dose: 100.0 mg/kg/injection, schedule: Q04DX003 (ip), vehicle: Klucel (hydroxypropylcellulose) (HPC)
[18] = dose: 200.0 mg/kg/injection, schedule: Q04DX003 (ip), vehicle: Klucel (hydroxypropylcellulose) (HPC)
[19] = dose: 400.0 mg/kg/injection, schedule: Q04DX003 (ip), vehicle: Klucel (hydroxypropylcellulose) (HPC)

Measured: T/C

O=C1NC(=O)C(CO)(CO)N1
inactive: [1] 110 % of control | [2] 97 % of control | [3] 100 % of control | [4] 110 % of control | [5] 121 % of control | [6] 107 % of control | [7] 103 % of control | [8] 113 % of control | dose: 400.0 mg/kg/injection, schedule: Q04DX003 (ip), vehicle: saline 105 % of control

CCCCCC(=O)c1ccc(O)cc1O
inactive: dose: 12.5 mg/kg/injection, schedule: Q01DX009 (ip), vehicle: gum acacia 104 % of control | dose: 25.0 mg/kg/injection, schedule: Q01DX009 (ip), vehicle: gum acacia 109 % of control | dose: 50.0 mg/kg/injection, schedule: Q01DX009 (ip), vehicle: gum acacia 93 % of control and 95 % of control | dose: 100.0 mg/kg/injection, schedule: Q04DX003 (ip), vehicle: gum acacia 95 % of control | dose: 200.0 mg/kg/injection, schedule: Q04DX003 (ip), vehicle: gum acacia 94 % of control

O=C(O)/C(=C\c1ccccc1[N+](=O)[O-])c1cccc(Cl)c1
inactive: [9] 90 % of control | [10] 95 % of control

COC(=O)CCC(C(=O)OC)P(=O)(OC(C)C)OC(C)C (stereo not given)
inactive: [11] 96 % of control | [12] 102 % of control | dose: 400.0 mg/kg/injection, schedule: Q01DX001 (ip), vehicle: saline 86 % of control

Oc1ccc(O)c2c1CNCC2O (stereo not given)
inactive: [11] 97 % of control | [12] 104 % of control

COc1ccc(NC(=O)c2ccc(C(=O)Nc3ccc(OC)cc3OC)cc2)c(OC)c1
inactive: [13] 90 % of control | [14] 93 % of control and 102 % of control | [15] 93 % of control and 91 % of control

CCOC(=O)c1ccccc1NC(=O)c1ccccc1
inactive: [13] 100 % of control | [14] 103 % of control | [15] 103 % of control

C=C1C(=O)OC2/C=C(\C)CC/C=C(/C=O)C(OC)C(OC(=O)C(C)C)C12 (stereo not given)
inactive: dose: 6.25 mg/kg/injection, schedule: Q01DX009 (ip), vehicle: Klucel (hydroxypropylcellulose) (HPC) 95 % of control | dose: 12.5 mg/kg/injection, schedule: Q01DX009 (ip), vehicle: Klucel (hydroxypropylcellulose) (HPC) 100 % of control | dose: 25.0 mg/kg/injection, schedule: Q01DX009 (ip), vehicle: Klucel (hydroxypropylcellulose) (HPC) 101 % of control

Cc1cc(C)c2nc(-c3ccc(F)cc3)cc(C(=O)O)c2c1
inactive: [3] 97 % of control | [11] 101 % of control | [5] 97 % of control | [12] 93 % of control | [7] 96 % of control

Cc1ccc(NC(=O)Oc2c(C)cccc2C)c([N+](=O)[O-])c1
inactive: dose: 50.0 mg/kg/injection, schedule: Q01DX009 (ip), vehicle: Klucel (hydroxypropylcellulose) (HPC) 93 % of control | [9] 87 % of control

O=c1[nH]c2nc(Cl)c(Cl)nc2[nH]1
inactive: [16] 98 % of control | [4] 95 % of control and 96 % of control | [5] 94 % of control | [6] 108 % of control and 116 % of control | [7] 105 % of control | dose: 300.0 mg/kg/injection, schedule: Q01DX009 (ip), vehicle: saline 92 % of control | [8] 86 % of control

O=C1OC(=O)C(Br)C1Br (stereo not given)
inactive: dose: 1.56 mg/kg/injection, schedule: Q04DX003 (ip), vehicle: saline 106 % of control | dose: 3.12 mg/kg/injection, schedule: Q04DX003 (ip), vehicle: saline 106 % of control | dose: 6.25 mg/kg/injection, schedule: Q04DX003 (ip), vehicle: saline 95 % of control | [1] 108 % of control | [2] 87 % of control

CC(=O)OCc1ccc(/C=N/N2C(=O)CSC2=S)o1
inactive: dose: 75.0 mg/kg/injection, schedule: Q01DX001 (ip), vehicle: carboxymethylcellulose (CMC) 105 % of control | dose: 150.0 mg/kg/injection, schedule: Q01DX001 (ip), vehicle: carboxymethylcellulose (CMC) 100 % of control | dose: 300.0 mg/kg/injection, schedule: Q01DX001 (ip), vehicle: carboxymethylcellulose (CMC) 97 % of control

CN(C)C(=O)Nc1ccc(Cl)cc1Cl
inactive: dose: 100.0 mg/kg/injection, schedule: Q04DX002 (ip), vehicle: saline with Tween-80 98 % of control | dose: 200.0 mg/kg/injection, schedule: Q04DX002 (ip), vehicle: saline with Tween-80 110 % of control | dose: 400.0 mg/kg/injection, schedule: Q04DX002 (ip), vehicle: saline with Tween-80 121 % of control

CCCCC(=O)C(OC)OC
inactive: dose: 100.0 mg/kg/injection, schedule: Q01DX009 (ip), vehicle: saline with Tween-80 119 % of control | dose: 200.0 mg/kg/injection, schedule: Q01DX009 (ip), vehicle: saline with Tween-80 95 % of control | dose: 400.0 mg/kg/injection, schedule: Q01DX009 (ip), vehicle: saline with Tween-80 92 % of control

COc1cc2cc[n+]3c(C)c4cc5c(cc4cc3c2cc1OC)OCO5 (tested in a mixture with another compound)
inactive: dose: 2.5 mg/kg/injection, schedule: Q01DX009 (ip), vehicle: saline 109 % of control | dose: 5.0 mg/kg/injection, schedule: Q01DX009 (ip), vehicle: saline 103 % of control | [16] 97 % of control

O=C(O)c1ccccc1Cc1ccccc1
inactive: [13] 94 % of control | [14] 98 % of control | [15] 100 % of control

COc1ccc(OC(C)=O)c2c1C(=O)OC(C)C2NC(=O)C(C)NC(C)=O (stereo not given)
inactive: dose: 12.5 mg/kg/injection, schedule: Q04DX002 (ip), vehicle: saline with Tween-80 103 % of control | dose: 25.0 mg/kg/injection, schedule: Q04DX002 (ip), vehicle: saline with Tween-80 107 % of control | dose: 50.0 mg/kg/injection, schedule: Q04DX002 (ip), vehicle: saline with Tween-80 100 % of control

Nc1nc2c(ncn2C(/C=N/Nc2ccccc2)OC(/C=N/Nc2ccccc2)CO)c(=O)[nH]1 (stereo not given)
inactive: dose: 100.0 mg/kg/injection, schedule: Q01DX001 (ip), vehicle: other 98 % of control | dose: 200.0 mg/kg/injection, schedule: Q01DX001 (ip), vehicle: other 106 % of control | dose: 400.0 mg/kg/injection, schedule: Q01DX001 (ip), vehicle: other 108 % of control

Cc1ccc(S(=O)(=O)c2ccc(Cl)cc2)cc1
inactive: dose: 100.0 mg/kg/injection, schedule: Q04DX003 (ip), vehicle: acetone 110 % of control | dose: 200.0 mg/kg/injection, schedule: Q04DX003 (ip), vehicle: acetone 110 % of control | dose: 400.0 mg/kg/injection, schedule: Q04DX003 (ip), vehicle: acetone 109 % of control

COc1ccc(CCN=Cc2ccc(Cl)cc2)cc1OC
inactive: [9] 104 % of control | [17] 93 % of control | [10] 95 % of control | [18] 96 % of control | dose: 400.0 mg/kg/injection, schedule: Q01DX009 (ip), vehicle: Klucel (hydroxypropylcellulose) (HPC) 95 % of control | [19] 103 % of control

CCC(Cl)COP(=O)(OCC(Cl)CC)C(c1ccc(Cl)c(Cl)c1)P(=O)(OCC(Cl)CC)OCC(Cl)CC (stereo not given)
inactive: [17] 101 % of control | [18] 98 % of control | [19] 96 % of control

CCCCCCOc1ccc(C2=C(c3ccccc3)C(=O)C(c3ccccc3)=C2c2ccccc2)cc1
inactive: dose: 100.0 mg/kg/injection, schedule: Q01DX001 (ip), vehicle: carboxymethylcellulose (CMC) 100 % of control | dose: 200.0 mg/kg/injection, schedule: Q01DX001 (ip), vehicle: carboxymethylcellulose (CMC) 97 % of control | dose: 400.0 mg/kg/injection, schedule: Q01DX001 (ip), vehicle: carboxymethylcellulose (CMC) 100 % of control

Source: PubChem BioAssay AID248 (DTP/NCI, 2004)
